Earlier results on one substance are cited in patent US20070161566A1, “Method of treating multiple sclerosis” (Teva Pharmaceutical Industries, Ltd., priority 2006, published 2007).

The subject of data set [1] is MS patients. To be noted: 20 mg/day subcutaneous dose.
The test system of data set [2] is chronic progressive MS patients. To be noted: 15 mg twice per day (30 mg per day); up to 24 months.

For the substance “L-glutamic acid polymer with L-alanine, L-lysine, L-tyrosine, acetate (salt) [GA]”, in data set [1], the “total number of enhancing lesions as measured by MRI” value is on record as “reduce the total number of enhancing lesions”. Besides, the “arrest or reversal of disease progress vs placebo” value in data set [2] is “did not produce statistically significant difference”.
